From patent US6737383B1, “Herbicidal oxadiazolidines” (priority 1999, dated 2004)

What was measured:
morningglory = assay: Test B pre/postemergence morningglory; assay type: in vivo, Ipomoea hederacea
Text: (§1) Seeds of bedstraw (Galium aparine), blackgrass (Alopecurus myosuroides), surinam grass (Brachiaria decumbens), cocklebur (Xanthium strumarium), corn (Zea mays), crabgrass (Digitaria sanguinalis), giant foxtail (Setaria faberii), morningglory (Ipomoea hederacea), pigweed (Amaranthus retroflexus), rape (Brassica napus), soybean (Glycine max), sugar beet (Beta vulgaris), velvetleaf (Abutilon theophrasti), wheat (Triticum aestivum), wild oat (Avena fatua) and purple nutsedge (Cyperus rotundus) tubers were planted and treated preemnergence with test chemicals formulated in a non-phytotoxic solvent mixture which included a surfactant.
(§2) At the same time, these crop and weed species were also treated with postemergence applications of test chemicals formulated in the same manner. Plants ranged in height from 2 to 18 cm (1- to 4-leaf stage) for postemergence treatments. Plant species in the flood test consisted of rice (Oryza sativa), smallflower flatsedge (Cyperus difformis), duck salad (Heteranthera limosa) and bamyardgrass (Echinochloa crus-galli) grown to the 2-leaf stage for testing. Treated plants and controls were maintained in a greenhouse for twelve to sixteen days, after which all species were compared to controls and visually evaluated. Plant response ratings, summarized in Table B, are based on a scale of 0 to 10 where 0 is no effect and 10 is complete control. A dash (−) response means no test result.

sugar beet = assay: Test B pre/postemergence sugar beet; assay type: in vivo, Beta vulgaris
Text: as §1, §2

purple nutsedge = assay: Test B pre/postemergence purple nutsedge; assay type: in vivo, Cyperus rotundus
Procedure, shortened: (§3)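 Response is a visual 0-to-10 score relative to untreated plants, where 0 means no effect and 10 means complete control, taken twelve to sixteen days after application. Treatments went onto soil at planting and onto foliage of 1- to 4-leaf plants, using a surfactant-containing non-phytotoxic solvent.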

wild oat = assay: Test B pre/postemergence wild oat; assay type: in vivo, Avena fatua
Procedure, shortened: as §3

wheat = assay: Test B pre/postemergence wheat; assay type: in vivo, Triticum aestivum
Text: as §1, §2

bedstraw = assay: Test B pre/postemergence bedstraw; assay type: in vivo, Galium aparine; settings: Rate 62 g/ha, Postemergence; scale of 0 to 10 where 0 is no effect and 10 is complete control
Procedure, shortened: as §3

giant foxtail = assay: Test B pre/postemergence giant foxtail; assay type: in vivo, Setaria faberii
Text: as §1, §2

rape = assay: Test B pre/postemergence rape; assay type: in vivo, Brassica napus
Procedure, shortened: as §3

blackgrass = assay: Test B pre/postemergence blackgrass; assay type: in vivo, Alopecurus myosuroides
Text: as §1, §2

crabgrass = assay: Test B pre/postemergence crabgrass; assay type: in vivo, Digitaria sanguinalis
Text: as §1, §2

pigweed = assay: Test B pre/postemergence pigweed; assay type: in vivo, Amaranthus retroflexus
Procedure, shortened: as §3

corn = assay: Test B pre/postemergence corn; assay type: in vivo, Zea mays
Text: as §1, §2

surinam grass = assay: Test B pre/postemergence surinam grass; assay type: in vivo, Brachiaria decumbens
Text: as §1, §2

soybean = assay: Test B pre/postemergence soybean; assay type: in vivo, Glycine max
Procedure, shortened: as §3

velvetleaf = assay: Test B pre/postemergence velvetleaf; assay type: in vivo, Abutilon theophrasti
Text: as §1, §2

cocklebur = assay: Test B pre/postemergence cocklebur; assay type: in vivo, Xanthium strumarium
Text: as §1, §2

[1] = Preemergence, Rate 62 g/ha, scale of 0 to 10 where 0 is no effect and 10 is complete control
[2] = Preemergence, Rate 250 g/ha, scale of 0 to 10 where 0 is no effect and 10 is complete control
[3] = Preemergence, Rate 500 g/ha, scale of 0 to 10 where 0 is no effect and 10 is complete control
[4] = Rate 125 g/ha, Preemergence, scale of 0 to 10 where 0 is no effect and 10 is complete control
[5] = Rate 500 g/ha, Postemergence, scale 0 to 10, 0 no effect, 10 complete control
[6] = Rate 62 g/ha, Postemergence, scale of 0 to 10 where 0 is no effect and 10 is complete control
[7] = Rate 125 g/ha, Postemergence, scale 0 to 10

CC(C)N(C(=O)n1oc(=O)n(COCc2ccccc2)c1=O)c1ccc(F)cc1 [Compound 261]
3: Crabgrass plant response rating (crabgrass; [4]) | Plant response rating, B. signalgrass (surinam grass; [3])
5: Blackgrass plant response rating (blackgrass; [5]) | Crabgrass plant response rating (crabgrass; [2]) | Plant response rating, Crabgrass (crabgrass; [3])
9: Giant foxtail plant response rating (giant foxtail; [2]) | Plant response rating, Giant foxtail (giant foxtail; [3])
2: Wheat plant response rating (wheat; [5]) | Crabgrass plant response rating (crabgrass; [1]) | Redroot pigweed plant response rating (pigweed; [5])
0: Morningglory plant response rating (morningglory; [1]) | Morningglory plant response rating (morningglory; [2]) | Plant response rating, Morningglory (morningglory; [3]) | Morningglory plant response rating (morningglory; [4]) | Sugarbeets plant response rating (sugar beet; [1]) | Sugarbeets plant response rating (sugar beet; [2]) | Plant response rating, Sugarbeets (sugar beet; [3]) | Sugarbeets plant response rating (sugar beet; [4]) | Sugarbeets plant response rating (sugar beet; [5]) | Nutsedge plant response rating (purple nutsedge; [2]) | Plant response rating, Nutsedge (purple nutsedge; [3]) | Nutsedge plant response rating (purple nutsedge; [4]) | Plant response rating (0 to 10; 0 is no effect, 10 is complete control), Nutsedge (purple nutsedge; Rate 250 g/ha, Postemergence) | Nutsedge plant response rating (purple nutsedge; [5]) | Wild oats plant response rating (wild oat; [1]) | Wild oats plant response rating (wild oat; [2]) | Plant response rating, Wild oats (wild oat; [3]) | Wild oats plant response rating (wild oat; [4]) | Wild oats plant response rating (wild oat; [5]) | Wheat plant response rating (wheat; [1]) | Wheat plant response rating (wheat; [2]) | Plant response rating, Wheat (wheat; [3]) | Wheat plant response rating (wheat; [4]) | Bedstraw plant response rating (bedstraw) | Plant response rating (0 to 10; 0 is no effect, 10 is complete control), Giant foxtail (giant foxtail; Rate 250 g/ha, Postemergence) | Giant foxtail plant response rating (giant foxtail; [5]) | Rape plant response rating (rape; [1]) | Rape plant response rating (rape; [2]) | Plant response rating, Rape (rape; [3]) | Rape plant response rating (rape; [4]) | Plant response rating (0 to 10; 0 is no effect, 10 is complete control), Rape (rape; Rate 250 g/ha, Postemergence) | Rape plant response rating (rape; [5]) | Blackgrass plant response rating (blackgrass; [1]) | Blackgrass plant response rating (blackgrass; [6]) | Blackgrass plant response rating (blackgrass; [7]) | Blackgrass plant response rating (blackgrass; [4]) | Plant response rating (0 to 10; 0 is no effect, 10 is complete control), Blackgrass (blackgrass; Rate 250 g/ha, Postemergence) | Plant response rating (0 to 10; 0 is no effect, 10 is complete control), Crabgrass (crabgrass; Rate 250 g/ha, Postemergence) | Crabgrass plant response rating (crabgrass; [5]) | Redroot pigweed plant response rating (pigweed; [1]) | Redroot pigweed plant response rating (pigweed; [2]) | Plant response rating, Redroot pigweed (pigweed; [3]) | Redroot pigweed plant response rating (pigweed; [4]) | Corn plant response rating (corn; [1]) | Corn plant response rating (corn; [2]) | Plant response rating, Corn (corn; [3]) | Corn plant response rating (corn; [6]) | Corn plant response rating (corn; [7]) | Corn plant response rating (corn; [4]) | Plant response rating (0 to 10; 0 is no effect, 10 is complete control), Corn (corn; Rate 250 g/ha, Postemergence) | Corn plant response rating (corn; [5]) | B. signalgrass plant response rating (surinam grass; [1]) | B. signalgrass plant response rating (surinam grass; [2]) | B. signalgrass plant response rating (surinam grass; [6]) | B. signalgrass plant response rating (surinam grass; Rate 125 g/ha, Postemergence, scale 0 (no effect) to 10 (complete control)) | B. signalgrass plant response rating (surinam grass; [4]) | Plant response rating (0 to 10; 0 is no effect, 10 is complete control), B. signalgrass (surinam grass; Rate 250 g/ha, Postemergence) | B. signalgrass plant response rating (surinam grass; [5]) | Soybean plant response rating (soybean; [1]) | Soybean plant response rating (soybean; [2]) | Plant response rating, Soybean (soybean; [3]) | Soybean plant response rating (soybean; [4]) | Velvetleaf plant response rating (velvetleaf; [1]) | Velvetleaf plant response rating (velvetleaf; [2]) | Plant response rating, Velvetleaf (velvetleaf; [3]) | Velvetleaf plant response rating (velvetleaf; [4]) | Cocklebur plant response rating (cocklebur; [1]) | Cocklebur plant response rating (cocklebur; [2]) | Plant response rating, Cocklebur (cocklebur; [3]) | Cocklebur plant response rating (cocklebur; [6]) | Cocklebur plant response rating (cocklebur; [7]) | Cocklebur plant response rating (cocklebur; [4]) | Plant response rating (0 to 10; 0 is no effect, 10 is complete control), Cocklebur (cocklebur; Rate 250 g/ha, Postemergence)
6: Plant response rating (0 to 10; 0 is no effect, 10 is complete control), Morningglory (morningglory; Rate 250 g/ha, Postemergence) | Morningglory plant response rating (morningglory; [5])
8: Giant foxtail plant response rating (giant foxtail; [1]) | Giant foxtail plant response rating (giant foxtail; [4])
1: Blackgrass plant response rating (blackgrass; [2]) | Plant response rating (0 to 10; 0 is no effect, 10 is complete control), Redroot pigweed (pigweed; Rate 250 g/ha, Postemergence) | Velvetleaf plant response rating (velvetleaf; [5]) | Cocklebur plant response rating (cocklebur; [5])
4: Plant response rating, Blackgrass (blackgrass; [3]) | Soybean plant response rating (soybean; [5])
